Test results: patent publication US20260085034A1, “N-(BENZHYDRYL)CYCLOALKYLCARBOXAMIDE DERIVATIVES AS INHIBITORS OF GLYCOGEN SYNTHASE 1 (GYS1) AND METHODS OF USE THEREOF” (Maze Therapeutics, Inc., priority 2022, published 2026)

Test system: glycogen synthesis in HeLa cells (hGYS1)
Assay: GYS1 cell based assay (glycogen digestion, Glucose-glo)
Conditions: Homo sapiens, 24 h incubation, 20 mM glucose, geometric mean of at least 2 runs, read-out: Cellular IC50
Source text: The GYS1 cell based assay is a bioluminescent assay that quantifies the glucose resulting from glycogen digestion; the quantified glucose is an indirect measure of GYS1 glycogen synthesis. Newly synthesized glycogen is digested using Glucoamylase; the resulting glucose is quantified by using the Glucose-glo assay kit from Promega. Glucose-glo works by coupling glucose oxidation and NADH production with a bioluminescent system that is activated with NADH. Glucose is oxidized by Glucose dehydrogenase and the reaction reduces NAD+ to NADH; NADH activates Reductase which reduces a pro-luciferin Reductase Substrate to luciferin. Luciferin is detected in a luciferase reaction using Ultra-Glo rLuciferase and ATP, and the luminesce produced is proportional to the glucose in the sample. The luminescence is measured as a single point read in a plate reader.
Compounds that inhibit the hGYS1 enzyme and, subsequently, the glycogen synthesis in cells, were tested using assay ready plates (white, clear bottom 384 well plates) in a final DMSO reaction volume of 1% DMSO. Compounds in the assay ready plates were mixed with media with no additives, except for 20 mM glucose prior to cell addition. HeLa cells were starved in media with no additives, except for 1× Glutamax for 24 h. Starved HeLa cells were plated, in a 1:1 ratio to the media in the assay ready plate and incubated for 24 h at 37° C. and 5% CO2. Cells were washed in 1×PBS buffer and lysed in lysis buffer containing 50% 1×PBS and 25% 0.3 N HCl of the final volume in the well or reaction volume; cells were incubated with lysis buffer for 10 minutes and quenched with the remaining 25% of the reaction volume that consisted of 450 mM Tris pH 8.0. Lysates were mixed in a 1:1 ratio with Glucoamylase in 100 mM Sodium Acetate buffer, pH 5.3; the mixture was incubated for 1 h at 37° C. The digested lysate was mixed in a 1:1 ratio with Glucose-glo detection mixture as per vendor recommendations (Luciferase detection buffer, Reductase, Reductase substrate, Glucose dehydrogenase, and NAD) in read-out plates (solid white 384-well plates) and incubated for 1 h at RT. The plates were read using a plate reader with luminescence capabilities. Each compound concentration Relative Luminescence Unit (RLU) was averaged and normalized to the average RLU of the positive and negative controls to obtain a percentage inhibition. The normalized data vs. concentration was plotted; to determine the half-maximal concentration (IC50), the Levenberg-Marquardt algorithm was used to fit a Hill equation to the dose response data.
The results are shown in Table 4 below, which reports the IC50 of each compound. Unless otherwise specified, IC50 values are reported as the geometric mean of at least 2 assay runs on separate days. As shown in the table below, the compounds of the present invention are potent inhibitors of human GYS1. […] Each run represents the average of a technical replicate, where each compound was assayed twice in the same plate.

IC50: 3.28 µM
SMILES: CC(C)c1ccc([C@@H](NC(=O)[C@H]2C[C@@H]2F)c2ccn[nH]2)cc1F (single isomer, unassigned) [compound 11]
